Test results published in article PMC4599001, “Selective Irreversible Inhibition of Neuronal and Inducible Nitric-oxide Synthase in the Combined Presence of Hydrogen Sulfide and Nitric Oxide” (The Journal of Biological Chemistry, 2015).
Where “and” joins values, the source holds several entries; their conditions need not be identical. Equal entries are not always repeated. Entries after “also recorded” stand apart in the source; their conditions may differ. Where two headings read alike, the source gives them in different places.

What was measured:
nNOS [1] = biological target: T1, nNOS (Homo sapiens, UniProt P29475); details: for ActH2S, specific activity (citrulline formation) / Inhibition / vNO^H2S, NO formation rate: 0.5 mM H2S
T1 sequence (P29475 whole entry): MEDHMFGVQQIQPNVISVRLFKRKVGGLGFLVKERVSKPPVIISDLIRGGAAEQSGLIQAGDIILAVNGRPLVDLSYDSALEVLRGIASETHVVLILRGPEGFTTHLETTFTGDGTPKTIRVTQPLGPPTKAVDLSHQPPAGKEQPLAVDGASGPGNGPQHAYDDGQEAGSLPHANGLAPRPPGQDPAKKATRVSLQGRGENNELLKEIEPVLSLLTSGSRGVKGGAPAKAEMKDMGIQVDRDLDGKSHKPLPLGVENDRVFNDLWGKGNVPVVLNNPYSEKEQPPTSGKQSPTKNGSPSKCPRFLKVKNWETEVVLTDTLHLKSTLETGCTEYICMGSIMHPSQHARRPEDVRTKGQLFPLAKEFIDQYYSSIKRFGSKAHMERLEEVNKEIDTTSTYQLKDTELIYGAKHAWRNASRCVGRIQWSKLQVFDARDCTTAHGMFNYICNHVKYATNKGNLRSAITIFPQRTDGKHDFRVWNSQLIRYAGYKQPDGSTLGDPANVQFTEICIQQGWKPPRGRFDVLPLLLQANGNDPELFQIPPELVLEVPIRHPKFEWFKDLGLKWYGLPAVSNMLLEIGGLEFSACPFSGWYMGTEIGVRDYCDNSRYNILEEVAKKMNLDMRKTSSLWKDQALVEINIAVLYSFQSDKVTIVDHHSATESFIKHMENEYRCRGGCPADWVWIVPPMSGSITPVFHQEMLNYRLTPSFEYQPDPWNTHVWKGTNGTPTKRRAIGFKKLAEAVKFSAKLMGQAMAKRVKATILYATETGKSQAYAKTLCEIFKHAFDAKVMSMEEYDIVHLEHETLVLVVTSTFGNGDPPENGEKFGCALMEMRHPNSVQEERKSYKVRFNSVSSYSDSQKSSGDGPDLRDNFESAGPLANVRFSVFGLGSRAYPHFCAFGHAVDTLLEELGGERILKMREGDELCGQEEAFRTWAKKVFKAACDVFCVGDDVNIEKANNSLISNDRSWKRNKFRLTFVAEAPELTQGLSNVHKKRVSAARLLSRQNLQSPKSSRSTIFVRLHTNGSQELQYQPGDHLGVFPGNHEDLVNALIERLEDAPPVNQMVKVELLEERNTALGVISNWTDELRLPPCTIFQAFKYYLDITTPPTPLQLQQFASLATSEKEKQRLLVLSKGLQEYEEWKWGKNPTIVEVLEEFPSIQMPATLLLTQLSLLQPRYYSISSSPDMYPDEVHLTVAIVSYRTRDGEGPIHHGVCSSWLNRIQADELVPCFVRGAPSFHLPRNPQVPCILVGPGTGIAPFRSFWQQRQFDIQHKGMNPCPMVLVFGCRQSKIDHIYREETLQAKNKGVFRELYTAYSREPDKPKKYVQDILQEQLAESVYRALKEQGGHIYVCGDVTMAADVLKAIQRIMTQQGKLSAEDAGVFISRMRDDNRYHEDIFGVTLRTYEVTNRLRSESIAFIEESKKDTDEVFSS

nNOS [2] = details: read-out: IC50, inhibition of nNOS, cited from earlier work
[3] = cited from earlier work; for t1/2 of NO release: ref 35
nNOS [4] = biological target: T1, nNOS; test: NADPH oxidation by nNOS (340 nm); format: biochemical
nNOS [5] = biological target: T1, nNOS; format: biochemical
eNOS [6] = biological target: T2, eNOS (Homo sapiens, UniProt P29474); format: biochemical; details: for ActH2S, specific activity (citrulline formation) / Inhibition / vNO^H2S, NO formation rate: 0.5 mM H2S
Target sequence in this assay (P29474 2-1203): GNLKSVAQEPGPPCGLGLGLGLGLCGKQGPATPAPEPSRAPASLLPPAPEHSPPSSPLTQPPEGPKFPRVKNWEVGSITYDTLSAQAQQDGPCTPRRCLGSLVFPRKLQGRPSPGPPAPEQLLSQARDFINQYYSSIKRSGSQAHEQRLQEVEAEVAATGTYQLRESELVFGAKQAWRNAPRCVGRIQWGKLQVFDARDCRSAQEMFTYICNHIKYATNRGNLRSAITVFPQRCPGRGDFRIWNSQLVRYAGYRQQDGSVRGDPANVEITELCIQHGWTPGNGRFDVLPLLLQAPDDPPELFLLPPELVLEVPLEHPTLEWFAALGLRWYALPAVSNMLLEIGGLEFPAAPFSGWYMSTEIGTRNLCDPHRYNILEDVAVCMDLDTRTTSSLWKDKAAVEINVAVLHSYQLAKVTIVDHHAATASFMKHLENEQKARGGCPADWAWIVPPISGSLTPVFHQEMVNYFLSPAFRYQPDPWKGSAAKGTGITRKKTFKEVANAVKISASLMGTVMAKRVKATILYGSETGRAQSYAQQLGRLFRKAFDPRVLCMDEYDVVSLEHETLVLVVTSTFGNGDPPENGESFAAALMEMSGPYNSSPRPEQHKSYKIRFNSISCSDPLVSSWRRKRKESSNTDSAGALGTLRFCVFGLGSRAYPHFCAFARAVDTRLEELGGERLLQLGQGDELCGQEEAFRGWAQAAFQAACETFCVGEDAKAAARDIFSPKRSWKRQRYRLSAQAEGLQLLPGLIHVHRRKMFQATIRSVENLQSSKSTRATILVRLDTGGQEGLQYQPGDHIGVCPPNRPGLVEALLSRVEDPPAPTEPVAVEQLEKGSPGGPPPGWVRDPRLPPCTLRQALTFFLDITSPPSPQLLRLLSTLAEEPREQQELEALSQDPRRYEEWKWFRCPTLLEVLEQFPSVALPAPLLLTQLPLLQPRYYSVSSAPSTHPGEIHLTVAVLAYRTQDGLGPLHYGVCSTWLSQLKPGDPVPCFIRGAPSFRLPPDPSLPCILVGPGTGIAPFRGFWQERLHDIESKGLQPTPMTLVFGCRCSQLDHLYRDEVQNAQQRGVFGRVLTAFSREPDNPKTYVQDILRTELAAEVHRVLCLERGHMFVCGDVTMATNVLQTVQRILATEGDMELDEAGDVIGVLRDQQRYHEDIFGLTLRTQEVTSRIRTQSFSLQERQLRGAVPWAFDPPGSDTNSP

[7] = 37 °C; cited from earlier work
nNOS [8] = biological target: T1, nNOS
nNOS [9] = biological target: T1, nNOS; format: binding
mouse macrophage iNOS = biological target: T3, mouse macrophage iNOS (Mus musculus, UniProt P29477); format: biochemical; details: pH 7.4; read-out: IC50, citrulline formation by iNOS
T3 construct: made in house; host or cells: Escherichia coli
T3 sequence (P29477 whole entry): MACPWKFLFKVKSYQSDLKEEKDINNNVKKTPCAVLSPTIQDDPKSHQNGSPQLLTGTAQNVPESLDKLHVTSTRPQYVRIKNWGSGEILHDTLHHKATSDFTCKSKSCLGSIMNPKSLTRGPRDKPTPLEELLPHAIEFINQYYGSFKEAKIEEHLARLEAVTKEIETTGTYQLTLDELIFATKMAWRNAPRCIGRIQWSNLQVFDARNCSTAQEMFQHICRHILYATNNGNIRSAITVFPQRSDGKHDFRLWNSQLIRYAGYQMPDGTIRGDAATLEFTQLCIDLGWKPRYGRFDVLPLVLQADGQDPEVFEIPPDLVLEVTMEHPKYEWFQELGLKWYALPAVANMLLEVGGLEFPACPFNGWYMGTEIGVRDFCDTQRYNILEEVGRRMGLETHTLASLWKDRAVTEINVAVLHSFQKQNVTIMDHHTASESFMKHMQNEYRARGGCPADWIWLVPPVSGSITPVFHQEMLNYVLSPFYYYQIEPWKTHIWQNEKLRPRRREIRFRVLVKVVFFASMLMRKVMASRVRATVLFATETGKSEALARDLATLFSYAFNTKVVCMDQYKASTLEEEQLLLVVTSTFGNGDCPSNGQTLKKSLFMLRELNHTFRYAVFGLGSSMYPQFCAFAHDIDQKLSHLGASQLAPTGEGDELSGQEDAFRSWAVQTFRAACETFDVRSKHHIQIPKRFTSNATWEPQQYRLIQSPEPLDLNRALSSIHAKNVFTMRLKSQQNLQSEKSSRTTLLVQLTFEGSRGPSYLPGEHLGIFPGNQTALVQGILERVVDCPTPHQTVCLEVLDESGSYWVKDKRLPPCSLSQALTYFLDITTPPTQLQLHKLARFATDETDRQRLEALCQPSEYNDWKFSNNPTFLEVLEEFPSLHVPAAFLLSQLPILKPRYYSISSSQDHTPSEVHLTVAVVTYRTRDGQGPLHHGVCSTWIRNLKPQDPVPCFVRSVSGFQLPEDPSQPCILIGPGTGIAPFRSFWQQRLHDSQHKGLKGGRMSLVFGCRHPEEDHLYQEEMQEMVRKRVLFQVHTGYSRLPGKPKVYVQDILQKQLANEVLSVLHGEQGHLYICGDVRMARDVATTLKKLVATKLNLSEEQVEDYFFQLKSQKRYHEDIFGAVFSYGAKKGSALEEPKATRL

eNOS [10] = biological target: T2, eNOS
eNOS [11] = biological target: T2, eNOS; test: NADPH oxidation by eNOS (340 nm); format: biochemical; details: +Arg, +BH4, without Na2S

In the case of [Na+].[Na+].[O-][N+]([O-])=NO [Angeli's salt, disodium diazen-1-ium-1,2,2-triolate], the “Reversal of inhibition by thiols” value (nNOS [1]; 10 mM GSH or 2 mM DTT present) is reported as “completely reversed in the presence of thiols” and the IC50 (nNOS [1]; read-out: IC50, citrulline formation by nNOS, Angeli's salt as HNO donor, 50 mM TEA pH 7.4, 10 min, 37 °C) is reported as 190 µM.
For O[C@@H](CS)[C@@H](O)CS [DTT], the IC50 (nNOS [2]; ref 16) is given as 13200 µM and the IC50 (nNOS [2]; ref 27) is given as 160 µM.
For C1COCCN1.COc1ccc(P(=S)(S)N2CCOCC2)cc1 (centres unmarked) [GYY4137], the IC50 (nNOS [1]; read-out: Apparent IC50, citrulline formation by nNOS) is given as 2200 µM and the “t½ of H2S release” value ([3]; ref 34) is given as about 415 min.
With S [H2S, hydrogen sulfide] the “ActH2S, specific activity (citrulline formation)” value (from here on “ActH2S, specific activity”) (nNOS [1]; nNOS 0.5 μg/ml) was 53 ± 26 nmol/mg/min, the Inhibition (nNOS [1]; nNOS 0.5 μg/ml) was 86 ± 7% and the “vNO^H2S, NO formation rate” value (nNOS [1]; nNOS 0.5 μg/ml) was 0.026 ± 0.013 µM/min. The “ActH2S, specific activity” value (nNOS [1]; nNOS 2.0 μg/ml) was 31 ± 8 nmol/mg/min, the Inhibition (nNOS [1]; nNOS 2.0 μg/ml) was 92 ± 2% and the “vNO^H2S, NO formation rate” value (nNOS [1]; nNOS 2.0 μg/ml) was 0.062 ± 0.016 µM/min. The “ActH2S, specific activity” value (nNOS [1]; nNOS 10.0 μg/ml) was 24 ± 2 nmol/mg/min, the Inhibition (nNOS [1]; nNOS 10.0 μg/ml) was 92 ± 1% and the “vNO^H2S, NO formation rate” value (nNOS [1]; nNOS 10.0 μg/ml) was 0.24 ± 0.02 µM/min. The “ActH2S, specific activity” value (nNOS [1]; nNOS 15.0 μg/ml) was 29 ± 2 nmol/mg/min, the Inhibition (nNOS [1]; nNOS 15.0 μg/ml) was 91 ± 1% and the “vNO^H2S, NO formation rate” value (nNOS [1]; nNOS 15.0 μg/ml) was 0.44 ± 0.03 µM/min. For the same compound, the IC50 (nNOS [4]; Arg and/or BH4 omitted, no NO (span over conditions), read-out: IC50, reversible inhibition of nNOS by H2S alone) was 100 to 600 µM, the “Decrease of nNOS activity after dilution” value (nNOS [5]; preincubation with 0.5 mM Na2S under turnover conditions (+CaM), 150-fold dilution) was about 70% and the “nNOS activity after dilution” value (nNOS [5]; preincubation with 0.5 mM Na2S, CaM omitted during preincubation) was “activity was not affected”. For the same compound, the “ActH2S, specific activity” value (eNOS [6]; eNOS 2.0 μg/ml) was 98 ± 12 nmol/mg/min, the Inhibition (eNOS [6]; eNOS 2.0 μg/ml) was 24 ± 16% and the “vNO^H2S, NO formation rate” value (eNOS [6]; eNOS 2.0 μg/ml) was 0.20 ± 0.02 µM/min. The “ActH2S, specific activity” value (eNOS [6]; eNOS 10.0 μg/ml) was 134 ± 16 nmol/mg/min, the Inhibition (eNOS [6]; eNOS 10.0 μg/ml) was 16 ± 12% and the “vNO^H2S, NO formation rate” value (eNOS [6]; eNOS 10.0 μg/ml) was 1.34 ± 0.16 µM/min. The “ActH2S, specific activity” value (eNOS [6]; eNOS 15.0 μg/ml) was 146 ± 19 nmol/mg/min, the Inhibition (eNOS [6]; eNOS 15.0 μg/ml) was 5 ± 14% and the “vNO^H2S, NO formation rate” value (eNOS [6]; eNOS 15.0 μg/ml) was 2.2 ± 0.3 µM/min. For the same compound, the “ActH2S, specific activity” value (eNOS [6]; eNOS 30.0 μg/ml) was 136 ± 38 nmol/mg/min, the Inhibition (eNOS [6]; eNOS 30.0 μg/ml) was −6 ± 35% and the “vNO^H2S, NO formation rate” value (eNOS [6]; eNOS 30.0 μg/ml) was 4.1 ± 1.1 µM/min. The “pKa of the H2S/HS− equilibrium” value [7] was 6.76.
With [Na+].[Na+].[S-2] [Na2S, sodium sulfide] the “Effect of thiols on IC50 of inhibition of citrulline formation” value (nNOS [1]) was “none of these thiols had any impact on IC50 values”, the nNOS activity blocked (nNOS [1]) was about 90% and the “pKa from plot of IC50 against pH” value (nNOS [1]) was 7.310 ± 0.014. For the same compound, the IC50 (nNOS [1]; read-out: IC50, citrulline formation by nNOS) was 23 µM, the IC50 (nNOS [1]; read-out: IC50, citrulline formation by nNOS, pH 6) was ~15 µM and 15 µM and the IC50 (nNOS [1]; read-out: IC50, citrulline formation by nNOS, pH 7.4) was ~24 µM and 24 µM and 31 µM. The IC50 (nNOS [1]; read-out: IC50, citrulline formation by nNOS, pH 8) was ~83 µM and 83 µM, the “Dimeric enzyme, gel filtration” value (nNOS [8]) was about 55% and the “Extent of spectral transition to thiol complex” value (nNOS [9]) was “approximately 50%”. The IC50 (mouse macrophage iNOS) was ~79 µM and 79 µM, the “Dimer/monomer ratio of eNOS” value (eNOS [10]) was “not affected by Na2S at all” and the “Decrease of nNOS activity after dilution” value (nNOS [5]) was “approximately 70%”. For the same compound, the “Reversal of inhibition by thiols” value (nNOS [5]) was “none of these thiols restored the activity”, the “nNOS activity after dilution” value (nNOS [5]) was “not affected” and the “Effect on eNOS activity” value (eNOS [6]) was “hardly affected”. For the same compound, the “Effect on citrulline formation by eNOS” value (eNOS [6]; pH 7.4) was “hardly affected at all; also recorded: only marginally affected”.
For O=C([O-])[C@@H]1CCCN1[N+]([O-])=NO.O=C([O-])[C@@H]1CCCN1[N+]([O-])=NO.[Na+].[Na+] [PROLI/NO, 1-(hydroxy-NNO-azoxy)-L-proline, disodium salt], the “t1/2 of NO release” value [3] is given as 0.017 to 0.033 min, the IC50 (nNOS [4]; +Arg, −BH4, in the absence of Na2S, read-out: IC50, NADPH oxidation by nNOS) is given as about 80 µM and the IC50 (nNOS [4]; +Arg, −BH4, in the presence of 10 μM Na2S, read-out: IC50, NADPH oxidation by nNOS) is given as about 10 µM. For the same compound, the IC50 (eNOS [11]) was 100 µM.
For NCCCNCCCCN(CCCN)/[N+]([O-])=N/O [SPER/NO, (Z)-1-[N-[3-aminopropyl]-N-[4-(3-aminopropylammonio)butyl]amino]diazen-1-ium-1,2-diolate], the “t1/2 of NO release” value [3] is listed as about 30 min and the IC50 (nNOS [4]; absence of BH4, with Na2S, after 10 min, read-out: Apparent IC50, potentiation of the inhibitory effect of Na2S on NADPH oxidation by nNOS) is listed as 106 µM.
